Source: paper PMC9760738, “Pharmacokinetics, absorption, distribution, metabolism and excretion of the MEK inhibitor zapnometinib in rats” (Frontiers in Pharmacology, 2022)
“And” between values parts separate entries of the source, which are not always exact repeats. Identical values can stand only once. Like-named read-outs stand apart in the source and are kept apart here.

Tests used:
[1] = Metabolite profiling of plasma extracts by radio-HPLC (Group 3); type: in vivo, rat; settings: for concentration at 2 h / concentration at 8 h: rat, plasma, oral, 30 mg/kg, read-out: Concentration in plasma extract
Method: Metabolite profiling was performed by HPLC analysis according to the company’s SOP of plasma (Group 3), urine (Group 2) and feces (Group 2) samples. Briefly, for metabolite profiling and identification, radioactivity (cpm) was measured in HPLC eluent fractions that had previously been collected at 12 s intervals for the duration of the run (65 min) into 96-well Deep Well LumaPlates and dried in a centrifugal evaporator. A Microbeta2 scintillation counter was used to count each plate, with wells simultaneously counted for 2 min, after an initial 5 min delay. A subsample of plasma was analyzed (ca 2 ml) taken from individual animals to provide representative samples, for each sex, at 2, 8 and 168 h post dose (n = 6). Equal proportions of the total urine weight voided from Group 2 animals was pooled to provide representative samples for each sex at 0–6 h, 6–24 h and 24–48 h post dose (n = 6). Equal proportions of the total feces homogenate generated from the samples voided by the three rats (Group 2) were pooled to provide representative samples for each sex at 0–24 and 24–48 h post dose ([…]). Sample preparation was carried out due to the company’s SOPs (see Supplementary Methods). The extractability was ≥95.0% (95.0–100%) TRR (Total Radioactive Residue) for plasma and ≥88.3% (88.3%–91.3%) TRR for feces. As reference, a standard solution of zapnometinib (0.1 mg/ml in acetonitrile) was used. To assess HPLC method suitability, a column recovery was assessed on each representative sample (one per matrix). The recovery of radioactivity from the HPLC column was determined by collecting the column eluent, following an injection of a representative sample (one per matrix), and determining the radioactive content by submitting aliquots for LSC analysis. The results of these analyses were between 93.8%–105.1% column recoveries.
Next, radioactive metabolic components of zapnometinib in urine, plasma and feces extracts were isolated and profiled. The components were quantified by fraction collection/scintillation analysis, as appropriate to the radioactivity concentrations. Mass spectroscopy was used to propose identities of the major circulatory and excreted metabolites, and to correlate the metabolites detected in the different matrices. Components identified by LC-MS/MS were related to the quantified HPLC analysis by comparison of related radiochromatograms and comparison of elution order. Representative HPLC radiochromatograms of pooled feces extracts collected during 0–24 and 24–48 h post dose from male and female rats (which reveal the main metabolites) were qualitatively similar with some minor sex differences (Figure 3).

[2] = from other nonclinical studies; cited from earlier work
[3] = set-up: method as in Lorusso et al., 2005; settings: acid metabolite after CI-1040 dosing in patients; ref Lorusso et al., 2005; cited from earlier work
[4] = Plasma protein binding assay, human plasma; type: in vitro ADME; settings: data not shown
[5] = Excretion balance of radioactivity after single oral 30 mg/kg [14C]-zapnometinib, Sprague-Dawley rats (Group 2); type: in vivo, rat; settings: for Total recovery: 0-168 h; for Carcass: 168 h
Method: Oral doses of [^14C]-zapnometinib were administered as a suspension in 5% DMSO (v/v), 30% PEG 400 (v/v) and 7.5% (w/v) Captisol in water at a dose level of 30 mg/kg to male and female rats by gastric intubation at a dose volume of 4 ml/kg body weight. The selected dose level (30 mg/kg) was below the no observed adverse effect level (100 mg/kg), the formulation was selected based on data obtained in other nonclinical studies. The radioactive dose administered to each animal was quantified from the weight (excretion studies only) or volume of dosing formulation given, and its mean measured radioactivity concentration. The weight of test compound administered to each rat was determined from the radioactive dose administered and the specific activity of the test material.
Total excreta from three male and three female rats were collected after single oral doses of [^14C]-zapnometinib. Urine was collected into containers cooled in solid CO2 and feces were collected separately at ambient temperature. Expired air was trapped in 1M potassium hydroxide solution. After completion of the final excreta collection, rats were killed by cervical dislocation following sedation, and the carcasses retained for analysis.
Radioactivity was measured by liquid scintillation analysis using Wallac® 1409 automatic liquid scintillation counters. Samples were prepared according to the company’s SOP (see Supplementary Methods). Briefly, replicate weighed samples were mixed with Ultima Gold™ scintillation cocktail (PerkinElmer, United States) for the measurement of radioactivity. Radioactivity in amounts less than twice that of the background concentration in the sample under investigation was below the limit of accurate quantification (BLQ). […]
For Liquid scintillation analyses, carcasses from rats (Group 2) were solubilized by digestion at ca 55 °C overnight in a solution prepared from sodium hydroxide (80 g) and Triton X-405 (100 mL) in purified water (600 mL) and methanol (300 mL). After measurement of total sample weight (as appropriate), replicate portions of diluted dose solutions (ca 0.1 mL), plasma (ca 0.05 – 0.25 mL), urine (ca 0.05 – 0.25 mL), expired air trap solution (ca 1 mL) and cage wash (ca 1 mL) were mixed directly with Ultima Gold scintillation cocktail (5 mL; 15 mL for air traps) for measurement of radioactivity concentrations. Similarly, replicate weighed portions of digested carcass solutions (ca 1 mL plus 1 mL purified water) were mixed with Ultima Gold (10 mL) scintillation cocktail for measurement of radioactivity concentrations. Feces were weighed, then homogenized to a smooth paste after the addition of an appropriate volume (approximately 1.5 volumes) of purified water and the weight of each homogenate was recorded. Replicate weighed portions of feces (ca 0.2 g) and blood cells (ca. 0.25 g) were placed on Combustocones, which were then capped with cellulose pads and burned in oxygen using […]

[6] = individual males 7M, 8M, 9M, rows in order of periods 0-24, 0-48, 0-72, 0-96, 0-120, 0-144, 0-168 h

O=C(O)c1ccc(F)c(F)c1Nc1ccc(I)cc1Cl [zapnometinib, 2-(2-Chloro-4-iodophenylamino)-3,4-difluorobenzoic acid]
Proportion in plasma extract ([1]; 2 hours, female rats): 97.9 % sample | Proportion in plasma extract ([1]; 2 hours, male rats): 92.0 % sample | Proportion in plasma extract ([1]; 8 hours, female rats): 88.7 % sample | Proportion in plasma extract ([1]; 8 hours, male rats): 92.5 % sample | Extractability of plasma radioactivity ([1]; all measured time points): > 90 % TRR | Plasma concentration of unchanged zapnometinib ([1]; by 168 h post dose): below the limit of quantification | concentration at 2 h ([1]; 2 hours, female rats): 78400 ng/g | concentration at 2 h ([1]; 2 hours, male rats): 64400 ng/g | concentration at 8 h ([1]; 8 hours, female rats): 80700 ng/g | concentration at 8 h ([1]; 8 hours, male rats): 72100 ng/g | No observed adverse effect level [2]: 100 mg/kg | Plasma concentrations relative to those of CI-1040 [3]: approximately 30 fold | Protein binding [4]: high protein binding | Unbound fraction [4]: very low | Cumulative excretion, urine ([5]; 0-6 h, male, mean): 0.23 % administered dose | Cumulative excretion, faeces ([5]; 0-24 h, male, mean): 79.34 % administered dose | Cumulative excretion, urine ([5]; 0-24 h, male, mean): 2.20 % administered dose | Cumulative, cage wash ([5]; 0-24 h, male, mean): 0.14 % administered dose | Cumulative, expired air ([5]; 0-24 h, male, mean): 0.02 % administered dose | Cumulative excretion, faeces ([5]; 0-48 h, male, mean): 89.32 % administered dose | Cumulative excretion, urine ([5]; 0-48 h, male, mean): 2.68 % administered dose | Cumulative, cage wash ([5]; 0-48 h, male, mean): 0.18 % administered dose | Cumulative, expired air ([5]; 0-48 h, male, mean): 0.02 % administered dose | Cumulative excretion, faeces ([5]; 0-72 h, male, mean): 90.12 % administered dose | Cumulative excretion, urine ([5]; 0-72 h, male, mean): 2.77 % administered dose | Cumulative, cage wash ([5]; 0-72 h, male, mean): 0.19 % administered dose | Cumulative, expired air ([5]; 0-72 h, male, mean): 0.02 % administered dose | Cumulative excretion, faeces ([5]; 0-96 h, male, mean): 90.28 % administered dose | Cumulative excretion, urine ([5]; 0-96 h, male, mean): 2.80 % administered dose | Cumulative, cage wash ([5]; 0-96 h, male, mean): 0.21 % administered dose | Cumulative excretion, faeces ([5]; 0-120 h, male, mean): 90.34 % administered dose | Cumulative excretion, urine ([5]; 0-120 h, male, mean): 2.82 % administered dose | Cumulative, cage wash ([5]; 0-120 h, male, mean): 0.21 % administered dose | Cumulative excretion, faeces ([5]; 0-144 h, male, mean): 90.37 % administered dose | Cumulative excretion, urine ([5]; 0-144 h, male, mean): 2.83 % administered dose | Cumulative, cage wash ([5]; 0-144 h, male, mean): 0.21 % administered dose | Total recovery ([5]; female, mean): 98.26 % Administered dose | Total recovery ([5]; male, mean): 93.72 % Administered dose | Carcass ([5]; female, mean): 0.19 % Administered dose | Carcass ([5]; male, mean): 0.20 % Administered dose | Radioactivity in carcasses ([5]; 168 h post dose, both sexes): ~0.2% | Cumulative, expired air ([5]; individual males 7M, 8M, 9M, periods 0-24, 0-48, 0-72 h): 0.02 % administered dose | Cumulative excretion, urine ([5]; individual males 7M, 8M, 9M, rows in order of periods 0-6, 0-24, 0-48, 0-72, 0-96, 0-120, 0-144, 0-168 h): 0.23 % administered dose and 0.16 % administered dose and 0.30 % administered dose and 2.69 % administered dose and 1.99 % administered dose and 1.92 % administered dose and 3.13 % administered dose and 2.48 % administered dose and 2.43 % administered dose and 3.20 % administered dose and 2.55 % administered dose and 2.56 % administered dose and 3.22 % administered dose and 2.58 % administered dose and 2.61 % administered dose and 3.23 % administered dose and 2.59 % administered dose and 2.63 % administered dose and 3.24 % administered dose (2×) and 2.60 % administered dose (2×) and 2.64 % administered dose and 2.65 % administered dose | Cumulative excretion, faeces [5, 6]: 81.33 % administered dose and 77.94 % administered dose and 78.75 % administered dose and 90.61 % administered dose and 88.87 % administered dose and 88.48 % administered dose and 91.30 % administered dose and 89.52 % administered dose and 89.53 % administered dose and 91.37 % administered dose and 89.65 % administered dose and 89.82 % administered dose and 91.41 % administered dose and 89.69 % administered dose and 89.92 % administered dose and 91.44 % administered dose and 89.72 % administered dose and 89.96 % administered dose and 91.46 % administered dose and 89.89 % administered dose and 89.99 % administered dose | Cumulative, cage wash [5, 6]: 0.14 % administered dose (2×) and 0.16 % administered dose (4×) and 0.11 % administered dose and 0.22 % administered dose and 0.19 % administered dose and 0.23 % administered dose (5×) and 0.20 % administered dose and 0.15 % administered dose and 0.24 % administered dose (3×) and 0.26 % administered dose and 0.17 % administered dose
